Results taken from US8940291B2 (priority 2009, dated 2015).
Entries after “also recorded” stand apart in the source; their conditions may differ. Like-named read-outs stand apart in the source and are kept apart here.

Columns and labels:
VSVΔ51 [1] = format: cell-based, Vesicular stomatitis virus
VSVΔ51 [2] = format: cell-based, Vesicular stomatitis virus; conditions: 48 hours
wild type VSV (wtVSV) = format: cell-based, Vesicular stomatitis virus
VSVΔ51 [3] = format: cell-based, Vesicular stomatitis virus; remark: listed apart in the source
VSVΔ51 [4] = format: cell-based, Vesicular stomatitis virus; remark: listed apart in the source
[5] = tested on: IFN responsive U251 cells; format: cell-based, human
B16 melanoma cells = test: Cell cycle analysis in B16 melanoma cells (propidium iodine, flow cytometry); format: cell-based, mouse; conditions: over 48 hours
VSVΔ51 [6] = format: cell-based, Vesicular stomatitis virus; remark: listed apart in the source
CT26 cells = format: cell-based, mouse; conditions: 48 h
ISRE-luciferase reporter = format: cell-based, human
VSVΔ51 [7] = format: cell-based, Vesicular stomatitis virus; remark: listed apart in the source
4T1 cells = format: cell-based, mouse; conditions: 48 h
VSVΔ51-induced genes = format: cell-based, mouse
VSVΔ51 [8] = format: cell-based, Vesicular stomatitis virus; conditions: 40 h
VSVΔ51 [9] = format: cell-based, Vesicular stomatitis virus; remark: listed apart in the source
wild type VSV = format: cell-based, Vesicular stomatitis virus
[10] = tested on: oncolytic vaccinia virus (VVdd); format: cell-based; conditions: 20 μM; 72 h
[11] = tested on: IFN mediated antiviral state in U251 cells; format: cell-based, human
[12] = 4 h pre-treatment, with and without VSVΔ51

COc1cc2c(c(OC)c1OC)-c1ccc(OC)c(=O)cc1[C@@H](NC(C)=O)CC2 [colchicine]
VSVΔ51 spread (VSVΔ51 [1]): enhanced spread of VSVΔ51
VSV-induced cytotoxicity (VSV/CTRL kill ratio) (4T1 and CT26 cells): enhance VSV-induced cytotoxicity
lowest dose with strong enhancement of VSVΔ51 (GFP) spread (VSVΔ51 [2]): 80 nM
number of GFP positive cells with wtVSV (wild type VSV (wtVSV)): appeared to decrease the number of GFP positive cells
enhancement of virus production (maximum) (VSVΔ51 [3]): ~1000 fold
enhancement of VSVΔ51 spread (VSVΔ51 [4]): not observed in normal MRC-5 cells
VSV oncolysis [5]: enhanced VSV oncolysis
ability to overcome IFN-induced antiviral effects [5]: could not overcome IFN-induced antiviral effects

CC(/C=C/C(=O)NO)=C\[C@@H](C)C(=O)c1ccc(N(C)C)cc1 [TSA, reference compound]
cell cycle distribution (B16 melanoma cells): blocks the cell cycle in G1

O=C1OC(c2ccccc2)C(Cl)=C1Cl (stereo not shown) [VSe1, 3,4-dichloro-5-phenyl-2,5-dihydrofuran-2-one]
increase in viral titer (VSVΔ51 [6]): 1000 fold
cell killing in combination with VSVΔ51 (combination index) (CT26 cells): synergistic cell killing
interferon dependent transcription (luciferase) (ISRE-luciferase reporter): blunted
cell cycle distribution (B16 melanoma cells; listed as DCPDF): cells ultimately accumulate in G1; also recorded: block in G1
differential in replication between normal and cancerous tissues (VSVΔ51 [7]): roughly 1000 fold
growth of VSVΔ51 in tumour tissue (VSVΔ51 [7]): over 100 fold
VSVΔ51-GFP growth and spread (green fluorescence) (VSVΔ51 [7]; 40 μM): significantly enhanced
cell killing in combination with VSVΔ51 (combination index) (4T1 cells): synergistic cell killing
share of VSVΔ51-induced cellular genes whose induction is reduced (VSVΔ51-induced genes): over 96%
interferon protection from VSVΔ51 infection (VSVΔ51 [8]): partially overcome
replication of VSVΔ51 in normal tissues (VSVΔ51 [9]): did not increase the replication
growth of VSV with a wild type M gene (wild type VSV): minimal ability to enhance the growth
VVdd spread and viral output [10]: able to enhance the spread and replication; also recorded: enhanced spread and viral output; also recorded: enhances spread
sensitivity of IFN-protected cells to VSVΔ51 [11]: partially re-sensitized to VSVΔ51; also recorded: can overcome pre-existing IFN mediated antiviral state

CCC1=C[C@@H]2CN(C1)Cc1c([nH]c3ccccc13)[C@@](C(=O)OC)(c1cc3c(cc1OC)N(C)[C@H]1[C@@](O)(C(=O)OC)[C@H](OC(C)=O)[C@]4(CC)C=CCN5CC[C@]31[C@@H]54)C2 [Vinorelbine base, Vinorelbine Base]
VSV-induced cytotoxicity (VSV/CTRL kill ratio) (4T1 and CT26 cells; [12]): enhance VSV-induced cytotoxicity

COC(=O)Nc1nc2ccc(C(=O)c3cccs3)cc2[nH]1 [Nocodazole]
VSV-induced cytotoxicity (VSV/CTRL kill ratio) (4T1 and CT26 cells; [12]): enhance VSV-induced cytotoxicity

CCCSc1ccc2nc(NC(=O)OC)[nH]c2c1 [Albendazole]
VSV-induced cytotoxicity (VSV/CTRL kill ratio) (4T1 and CT26 cells; [12]): enhance VSV-induced cytotoxicity

O=C(CCCCCCC(=O)Nc1ccccc1)NO [SAHA, reference compound]
share of VSVΔ51-induced cellular genes whose induction is reduced (VSVΔ51-induced genes): 79%

Parbendazole
VSV-induced cytotoxicity (VSV/CTRL kill ratio) (4T1 and CT26 cells; [12]): enhance VSV-induced cytotoxicity
